Laboratory results taken from paper PMC5218480 (PLoS ONE, 2017).

Tested on: MV-4-11 cells
Assay: Gene expression microarray analysis (Affymetrix PrimeView) and GSEA
Type: cell-based, human
Design: RFU PODN (11730768_x_at) / Fold change /veh PODN (11730768_x_at) / RFU LINC00158 (11744669_a_at) / Fold change /veh LINC00158 (11744669_a_at) / RFU DUSP10 (11751237_a_at) / Fold change /veh DUSP10 (11751237_a_at) / RFU ID3 (11757404_x_at) / Fold change /veh ID3 (11757404_x_at) / RFU PLEKHG5 (11737974_s_at) / Fold change /veh PLEKHG5 (11737974_s_at) / RFU LRRC4B (11730491_at) / Fold change /veh LRRC4B (11730491_at) / RFU GIMAP4 (11747438_a_at) / Fold change /veh GIMAP4 (11747438_a_at) / RFU KRT8 (11758183_x_at) / Fold change /veh KRT8 (11758183_x_at) / RFU CNN1 (11734310_a_at) / Fold change /veh CNN1 (11734310_a_at) / RFU VPS37D (11726825_at) / Fold change /veh VPS37D (11726825_at) / RFU C10orf10 (11716522_x_at) / Fold change /veh C10orf10 (11716522_x_at) / RFU KIR2DL2 /// KIR2DL4 /// KIR2DL5A /// KIR2DL5B /// KIR2DS1 /// KIR2DS2 /// KIR2DS3 /// KIR2DS4 /// KIR3DL3 /// KIR3DL3 /// KIR3DS1 (11738374_at) / Fold change /veh KIR2DL2 /// KIR2DL4 /// KIR2DL5A /// KIR2DL5B /// KIR2DS1 /// KIR2DS2 /// KIR2DS3 /// KIR2DS4 /// KIR3DL3 /// KIR3DL3 /// KIR3DS1 (11738374_at) / RFU C1QL1 (11718748_at) / Fold change /veh C1QL1 (11718748_at) / RFU TMPRSS4 (11747572_a_at) / Fold change /veh TMPRSS4 (11747572_a_at) / RFU HAMP (11756126_x_at) / Fold change /veh HAMP (11756126_x_at) / RFU RNFT2 (11725882_a_at) / Fold change /veh RNFT2 (11725882_a_at) / RFU NR4A2 (11747474_a_at) / Fold change /veh NR4A2 (11747474_a_at) / RFU ABCC12 (11746883_a_at) / Fold change /veh ABCC12 (11746883_a_at) / RFU TMEM136 (11760407_x_at) / Fold change /veh TMEM136 (11760407_x_at) / RFU CLDN22 /// WWC2 (11732394_at) / Fold change /veh CLDN22 /// WWC2 (11732394_at) / RFU HLA-DPB1 (11760878_x_at) / Fold change /veh HLA-DPB1 (11760878_x_at) / RFU SPINT1 (11716480_a_at) / Fold change /veh SPINT1 (11716480_a_at) / RFU GAP43 (11754022_s_at) / Fold change /veh GAP43 (11754022_s_at) / RFU A4GNT (11735810_at) / Fold change /veh A4GNT (11735810_at) / RFU PRB3 (11715151_x_at) / Fold change /veh PRB3 (11715151_x_at) / RFU TUBB4B (11761932_at) / Fold change /veh TUBB4B (11761932_at) / RFU CAPN14 (11732068_a_at) / Fold change /veh CAPN14 (11732068_a_at) / RFU TMCC2 (11721928_a_at) / Fold change /veh TMCC2 (11721928_a_at) / RFU IRGQ (11745062_a_at) / Fold change /veh IRGQ (11745062_a_at) / RFU FAM174B (11720279_a_at) / Fold change /veh FAM174B (11720279_a_at) / RFU TMPRSS4 (11748680_a_at) / Fold change /veh TMPRSS4 (11748680_a_at) / RFU FAM212B (11763350_a_at) / Fold change /veh FAM212B (11763350_a_at) / RFU PLEKHG5 (11743358_a_at) / Fold change /veh PLEKHG5 (11743358_a_at) / RFU ZSCAN30 (11745921_a_at) / Fold change /veh ZSCAN30 (11745921_a_at) / RFU CMKLR1 (11741424_a_at) / Fold change /veh CMKLR1 (11741424_a_at) / RFU LOC101060620 /// MAPK8IP1 (11723275_at) / Fold change /veh LOC101060620 /// MAPK8IP1 (11723275_at) / RFU SPTSSB (11747773_x_at) / Fold change /veh SPTSSB (11747773_x_at) / RFU PRSS12 (11739890_at) / Fold change /veh PRSS12 (11739890_at) / RFU BIN1 (11741810_x_at) / Fold change /veh BIN1 (11741810_x_at) / RFU WNT11 (11732464_a_at) / Fold change /veh WNT11 (11732464_a_at) / RFU C10orf10 (11716521_a_at) / Fold change /veh C10orf10 (11716521_a_at) / RFU C5orf56 (11738089_at) / Fold change /veh C5orf56 (11738089_at) / RFU CYB561 (11721691_x_at) / Fold change /veh CYB561 (11721691_x_at) / RFU ANKRD19P (11752326_a_at) / Fold change /veh ANKRD19P (11752326_a_at) / RFU OR2T12 /// OR2T33 /// OR2T8 (11738714_s_at) / Fold change /veh OR2T12 /// OR2T33 /// OR2T8 (11738714_s_at) / RFU VCAN (11748164_a_at) / Fold change /veh VCAN (11748164_a_at) / RFU JSRP1 (11732532_at) / Fold change /veh JSRP1 (11732532_at) / RFU KRTAP10-11 (11738290_x_at) / Fold change /veh KRTAP10-11 (11738290_x_at) / RFU MYO3A (11730013_a_at) / Fold change /veh MYO3A (11730013_a_at) / RFU EBF3 (11725865_a_at) / Fold change /veh EBF3 (11725865_a_at) / RFU CAMK2N1 (11719241_x_at) / Fold change /veh CAMK2N1 (11719241_x_at) / RFU C5orf56 (11738088_a_at) / Fold change /veh C5orf56 (11738088_a_at) / RFU OLFML3 (11715873_a_at) / Fold change /veh OLFML3 (11715873_a_at) / RFU LOC100653217 /// NTM (11731650_a_at) / Fold change /veh LOC100653217 /// NTM (11731650_a_at) / RFU MAPK11 (11762145_a_at) / Fold change /veh MAPK11 (11762145_a_at) / RFU FIZ1 (11724087_x_at) / Fold change /veh FIZ1 (11724087_x_at) / RFU OASL (11726364_x_at) / Fold change /veh OASL (11726364_x_at) / RFU SOX15 (11748057_x_at) / Fold change /veh SOX15 (11748057_x_at) / RFU CD79A (11719716_a_at) / Fold change /veh CD79A (11719716_a_at) / RFU HIST1H1D (11736915_at) / Fold change /veh HIST1H1D (11736915_at) / RFU CASKIN2 (11723855_a_at) / Fold change /veh CASKIN2 (11723855_a_at) / RFU LOC730098 (11760151_x_at) / Fold change /veh LOC730098 (11760151_x_at) / RFU OR4N2 (11742367_at) / Fold change /veh OR4N2 (11742367_at) / RFU PRRT2 (11749266_a_at) / Fold change /veh PRRT2 (11749266_a_at) / RFU SNX32 (11753110_a_at) / Fold change /veh SNX32 (11753110_a_at) / RFU CDHR5 (11726645_a_at) / Fold change /veh CDHR5 (11726645_a_at) / RFU RCAN1 (11760418_a_at) / Fold change /veh RCAN1 (11760418_a_at) / RFU FAM167A (11723789_a_at) / Fold change /veh FAM167A (11723789_a_at) / RFU FAM26E (11764081_at) / Fold change /veh FAM26E (11764081_at) / RFU ISYNA1 (11749810_s_at) / Fold change /veh ISYNA1 (11749810_s_at) / RFU ACY1 (11761880_at) / Fold change /veh ACY1 (11761880_at) / RFU 11764098_at / Fold change /veh 11764098_at / RFU SAMD14 (11745864_x_at) / Fold change /veh SAMD14 (11745864_x_at) / RFU NPB (11741838_a_at) / Fold change /veh NPB (11741838_a_at) / RFU TMPRSS6 (11731388_a_at) / Fold change /veh TMPRSS6 (11731388_a_at) / RFU KRTAP10-2 (11738614_at) / Fold change /veh KRTAP10-2 (11738614_at) / RFU ARHGAP8 /// PRR5-ARHGAP8 (11727945_x_at) / Fold change /veh ARHGAP8 /// PRR5-ARHGAP8 (11727945_x_at) / RFU KRTAP5-7 /// NADSYN1 (11734609_at) / Fold change /veh KRTAP5-7 /// NADSYN1 (11734609_at) / RFU RASL12 (11751679_a_at) / Fold change /veh RASL12 (11751679_a_at) / RFU CDKN2B (11736163_a_at) / Fold change /veh CDKN2B (11736163_a_at) / RFU PRF1 (11729649_at) / Fold change /veh PRF1 (11729649_at) / RFU, ZNF638 /// ZNF638-IT1 / Fold change vs veh, ZNF638 /// ZNF638-IT1 / RFU, PANK3 / Fold change vs veh, PANK3 / RFU, SH3YL1 / Fold change vs veh, SH3YL1 / RFU, ZEB2 / Fold change vs veh, ZEB2 / RFU, NRIP1 / Fold change vs veh, NRIP1 / RFU, PTTG1IP / Fold change vs veh, PTTG1IP / RFU, CAPN2 / Fold change vs veh, CAPN2 / RFU, MED14 / Fold change vs veh, MED14 / RFU, SNORA58 / Fold change vs veh, SNORA58 / RFU, C1orf63 / Fold change vs veh, C1orf63 / RFU, LRRFIP1 / Fold change vs veh, LRRFIP1 / RFU, NDUFAF7 / Fold change vs veh, NDUFAF7 / RFU, SLC12A2 / Fold change vs veh, SLC12A2 / RFU, IBTK / Fold change vs veh, IBTK / RFU, ESF1 / Fold change vs veh, ESF1 / Fold change vs veh, TMEM50B / RFU, TAOK1 / Fold change vs veh, TAOK1 / RFU, ACBD3 / Fold change vs veh, ACBD3 / RFU, TMA16 / Fold change vs veh, TMA16 / RFU, RWDD3 / Fold change vs veh, RWDD3 / RFU, BCAT1 / Fold change vs veh, BCAT1 / RFU, EDEM3 / Fold change vs veh, EDEM3 / RFU, TMEM33 / Fold change vs veh, TMEM33 / RFU, WDR75 / Fold change vs veh, WDR75 / RFU, AHCTF1 / Fold change vs veh, AHCTF1 / RFU, TFRC / Fold change vs veh, TFRC / RFU, ZDHHC17 / Fold change vs veh, ZDHHC17 / RFU, NOM1 / Fold change vs veh, NOM1 / RFU, ARL8B / Fold change vs veh, ARL8B / RFU, ZBTB11 / Fold change vs veh, ZBTB11 / RFU, TAMM41 / Fold change vs veh, TAMM41 / RFU, KIAA1704 /// LOC100996395 / Fold change vs veh, KIAA1704 /// LOC100996395 / RFU, ING1 / Fold change vs veh, ING1 / RFU, TRMT61B / Fold change vs veh, TRMT61B / RFU, FUBP3 / Fold change vs veh, FUBP3 / RFU, TP53 / Fold change vs veh, TP53 / RFU, TNKS2 / Fold change vs veh, TNKS2 / RFU, ZFP14 / Fold change vs veh, ZFP14 / RFU, ACTR2 / Fold change vs veh, ACTR2 / RFU, PPP3R1 / Fold change vs veh, PPP3R1 / RFU, PIK3R1 / Fold change vs veh, PIK3R1 / RFU, HNRNPA1 / Fold change vs veh, HNRNPA1 / RFU, RNF170 / Fold change vs veh, RNF170 / RFU, ZNF28 / Fold change vs veh, ZNF28 / RFU, RNGTT / Fold change vs veh, RNGTT / RFU, OGT / Fold change vs veh, OGT / RFU, BRD1 / Fold change vs veh, BRD1 / RFU, MARS / Fold change vs veh, MARS / RFU, ZNF655 / Fold change vs veh, ZNF655 / RFU, FAHD1 / Fold change vs veh, FAHD1 / RFU, BDP1 / Fold change vs veh, BDP1 / RFU, LRRCC1 / Fold change vs veh, LRRCC1 / RFU, ARID1A / Fold change vs veh, ARID1A / RFU, ZNF146 / Fold change vs veh, ZNF146 / RFU, ZNF330 / Fold change vs veh, ZNF330 / RFU, GPN3 / Fold change vs veh, GPN3 / RFU, C9orf123 / Fold change vs veh, C9orf123 / RFU, N4BP2L2 / Fold change vs veh, N4BP2L2 / RFU, ARFIP1 / Fold change vs veh, ARFIP1 / RFU, FAM179B / Fold change vs veh, FAM179B / RFU, BCL10 / Fold change vs veh, BCL10 / RFU, UHRF1BP1L / Fold change vs veh, UHRF1BP1L / RFU, BET1 / Fold change vs veh, BET1 / RFU, CNOT2 / Fold change vs veh, CNOT2 / RFU, ZNF268 / Fold change vs veh, ZNF268 / Fold change vs veh, ZNF507 / RFU, DGCR2 / Fold change vs veh, DGCR2 / RFU, WDSUB1 / Fold change vs veh, WDSUB1 / Fold change vs veh, HSP90B1 /// MIR3652 / RFU, ADSS / Fold change vs veh, ADSS / RFU, GK / Fold change vs veh, GK / RFU, ZNF148 / Fold change vs veh, ZNF148 / RFU, TAF9 / Fold change vs veh, TAF9 / RFU, SLC1A5 / Fold change vs veh, SLC1A5 / RFU, SLMO2 / Fold change vs veh, SLMO2 / RFU, ABCC4 / Fold change vs veh, ABCC4 / RFU, LOC101060439 /// RAP1B / Fold change vs veh, LOC101060439 /// RAP1B / RFU, RFX7 / Fold change vs veh, RFX7 / RFU, GTPBP10 / Fold change vs veh, GTPBP10 / RFU, CNEP1R1 / Fold change vs veh, CNEP1R1 / RFU, BIVM-ERCC5 /// ERCC5 / Fold change vs veh, BIVM-ERCC5 /// ERCC5 / RFU, ILF3 / Fold change vs veh, ILF3 / RFU 11762660_at / Fold change /veh 11762660_at / RFU VCAN (11757783_s_at) / Fold change /veh VCAN (11757783_s_at) / RFU DDX43 (11728927_at) / Fold change /veh DDX43 (11728927_at) / RFU KRT8 (11758188_x_at) / Fold change /veh KRT8 (11758188_x_at) / RFU NKD1 (11759106_at) / Fold change /veh NKD1 (11759106_at) / RFU SRD5A1 (11742802_a_at) / Fold change /veh SRD5A1 (11742802_a_at) / RFU TPSAB1 /// TPSB2 (11721975_s_at) / Fold change /veh TPSAB1 /// TPSB2 (11721975_s_at) / RFU GSTM3 (11746129_a_at) / Fold change /veh GSTM3 (11746129_a_at) / RFU IL23R (11737362_x_at) / Fold change /veh IL23R (11737362_x_at) / RFU TMEM51 (11727254_a_at) / Fold change /veh TMEM51 (11727254_a_at) / RFU PIWIL2 (11732686_x_at) / Fold change /veh PIWIL2 (11732686_x_at) / RFU ORM1 (11744905_x_at) / Fold change /veh ORM1 (11744905_x_at) / RFU CCDC152 (11743942_at) / Fold change /veh CCDC152 (11743942_at) / RFU ECM1 (11717891_a_at) / Fold change /veh ECM1 (11717891_a_at) / RFU IL23R (11748794_a_at) / Fold change /veh IL23R (11748794_a_at) / RFU TNFAIP8L3 (11732012_x_at) / Fold change /veh TNFAIP8L3 (11732012_x_at) / RFU MBOAT4 (11741988_at) / Fold change /veh MBOAT4 (11741988_at) / RFU 11764193_at / Fold change /veh 11764193_at / RFU TMEM53 (11763286_at) / Fold change /veh TMEM53 (11763286_at) / RFU MAGEB2 (11727129_at) / Fold change /veh MAGEB2 (11727129_at) / RFU TMEM200A (11744735_a_at) / Fold change /veh TMEM200A (11744735_a_at) / RFU CCDC152 (11751479_a_at) / Fold change /veh CCDC152 (11751479_a_at) / RFU FAM211A (11726209_a_at) / Fold change /veh FAM211A (11726209_a_at) / RFU RGS16 (11746705_a_at) / Fold change /veh RGS16 (11746705_a_at) / RFU VCAN (11755009_s_at) / Fold change /veh VCAN (11755009_s_at) / RFU RHOB (11743442_s_at) / Fold change /veh RHOB (11743442_s_at) / RFU RGS16 (11720943_a_at) / Fold change /veh RGS16 (11720943_a_at) / RFU RGS16 (11720944_at) / Fold change /veh RGS16 (11720944_at) / RFU, VPS4B / Fold change vs veh, VPS4B / RFU, CREB1 / Fold change vs veh, CREB1 / RFU, DNAJC13 / Fold change vs veh, DNAJC13 / RFU, GNAQ / Fold change vs veh, GNAQ / RFU, CDK5R1 / Fold change vs veh, CDK5R1 / RFU, ZRANB3 / Fold change vs veh, ZRANB3 / RFU, CUL4A / Fold change vs veh, CUL4A / RFU, CCNY / Fold change vs veh, CCNY / RFU, UFL1 / Fold change vs veh, UFL1 / RFU, COG3 / Fold change vs veh, COG3 / RFU, DIAPH2 / Fold change vs veh, DIAPH2 / RFU, SKA2 / Fold change vs veh, SKA2 / RFU, AFF3 / Fold change vs veh, AFF3 / RFU, LMF1 / Fold change vs veh, LMF1 / RFU, IPO11 / Fold change vs veh, IPO11 / RFU, DFFB / Fold change vs veh, DFFB / RFU, FOXP1 / Fold change vs veh, FOXP1 / RFU, CARD8 / Fold change vs veh, CARD8 / RFU, STRN3 / Fold change vs veh, STRN3 / RFU, ADK / Fold change vs veh, ADK / RFU, RASSF2 / Fold change vs veh, RASSF2 / RFU, WIPF1 / Fold change vs veh, WIPF1 / RFU, LARP1B / Fold change vs veh, LARP1B / RFU, RASA1 / Fold change vs veh, RASA1 / RFU, RB1 / Fold change vs veh, RB1 / RFU, PPFIA1 / Fold change vs veh, PPFIA1 / RFU, MAT2A / Fold change vs veh, MAT2A / RFU, CCT5 / Fold change vs veh, CCT5 / RFU, WDR92 / Fold change vs veh, WDR92 / RFU, CUX1 / Fold change vs veh, CUX1 / RFU, TTC7A / Fold change vs veh, TTC7A / RFU, TMEM135 / Fold change vs veh, TMEM135 / RFU, DEPTOR / Fold change vs veh, DEPTOR / RFU, CPM / Fold change vs veh, CPM / RFU, DNAJB6 / Fold change vs veh, DNAJB6 / RFU, CACNA2D3 / Fold change vs veh, CACNA2D3 / RFU, DTX4 / Fold change vs veh, DTX4 / RFU, TFCP2 / Fold change vs veh, TFCP2 / RFU, GMCL1 /// GMCL1P1 / Fold change vs veh, GMCL1 /// GMCL1P1 / RFU, AEBP2 / Fold change vs veh, AEBP2 / RFU, SNHG1 /// SNORD22 /// SNORD25 /// SNORD26 /// SNORD27 /// SNORD28 /// SNORD29 /// SNORD31 / Fold change vs veh, SNHG1 /// SNORD22 /// SNORD25 /// SNORD26 /// SNORD27 /// SNORD28 /// SNORD29 /// SNORD31 / Fold change (Aza/veh), C12orf56 (ProbeSet 11735607_a_at) / Fold change (ACY-1035/veh), C12orf56 (ProbeSet 11735607_a_at) / Fold change (Aza/veh), FGFR1OP (ProbeSet 11751329_s_at) / Fold change (ACY-1035/veh), FGFR1OP (ProbeSet 11751329_s_at) / Fold change (Aza/veh), VPS36 (ProbeSet 11739960_a_at) / Fold change (ACY-1035/veh), VPS36 (ProbeSet 11739960_a_at) / RFU SYPL1 (11715823_x_at) / Fold change /veh SYPL1 (11715823_x_at) / RFU IGFBP7 (11715501_s_at) / Fold change /veh IGFBP7 (11715501_s_at) / RFU REEP3 (11722064_at) / Fold change /veh REEP3 (11722064_at) / RFU IGLL1 (11728026_x_at) / Fold change /veh IGLL1 (11728026_x_at): dose or concentration left out as unconfirmed
Conditions: ProbeSet 11719817_x_at; LIST B

For `Nc1ncn([C@@H]2O[C@H](CO)[C@@H](O)[C@H]2O)c(=O)n1` [azacitidine], the “RFU, BET1” value was 81.04 RFU.
